The source of these data is publication PMC12610539, “Determination of Gnetol in Murine Biological Matrices by Liquid Chromatography–Tandem Mass Spectrometry (LC–MS/MS): Application in a Biodistribution Study” (International Journal of Molecular Sciences, 2025).

One series concerns tyrosinase. Conditions: cited from earlier work.
A short description of series [1]: Stability of stock solutions (1 mg/mL in DMSO). The series is classed as physicochemical. As for the experimental part:
(§1) Stock solutions of gnetol and resveratrol-^13C6 (IS) were prepared in DMSO at 1 mg/mL, stored at −20 °C, and protected from light. Calibration standards and QC samples were generated by serially diluting the gnetol stock into pooled blank murine plasma or hepatic homogenate. Stability was assessed under a range of storage and handling conditions. Stock solutions of gnetol and the IS were evaluated after storage on ice (0–4 °C) and at −20 °C. Plasma stability of gnetol was examined under short-term conditions (on ice for 6 h), long-term storage (−80 °C for 7 days), three freeze–thaw cycles, and post-preparative holding (autosampler at 4 °C for 24 h). Because stability is difficult to determine directly in intact tissues, only short-term stability in liver homogenate (on ice for 6 h) was assessed; for processed tissue extracts, post-preparative stability was likewise evaluated using liver homogenate as a representative matrix. Stability was considered acceptable when 85–115% of the initial gnetol concentration remained.

A further series is described as follows: in vitro. The series is classed as in vitro ADME. Conditions: mouse. As for the experimental part: as §1, with “Stability” for “Stock solutions of gnetol and resveratrol-^13C6 (IS) were prepared in DMSO at 1 mg/mL, stored at −20 °C, and protected from light. Calibration standards and QC samples were generated by serially diluting the gnetol stock into pooled blank murine plasma or hepatic homogenate. Stability”

Another series has as its system SARS-CoV-2 main protease. Also noted: method as in PMID 39653224. Conditions: cited from earlier work.

Like-named read-outs stand apart in the source and are kept apart here.

Regarding `Oc1cc(O)cc(/C=C/c2c(O)cccc2O)c1` [Gnetol, trans-2,3′,5′,6-tetrahydroxystilbene], the Tyrosinase inhibition result in the series with tyrosinase was “potent tyrosinase inhibitor”. Further, in series [1], the amount remaining at 24 h, 1 mg/mL was determined as 101 ± 5.3% and the amount remaining at 168 h, 1 mg/mL was found to be 98.2 ± 3.9%. Also, in the series “in vitro” (plasma), the fraction remaining at 15 ng/mL worked out at 103 ± 11.6%; the share remaining at 1200 ng/mL amounted to 112 ± 2.2%; the share remaining at 6 h, 15 ng/mL came to 100 ± 7.3%; the fraction remaining at 6 h, 1200 ng/mL was 106 ± 1.8%. Also, in “in vitro” (plasma), the fraction remaining at 24 h, 15 ng/mL worked out at 94 ± 7.7%; the amount remaining at 24 h, 1200 ng/mL worked out at 103 ± 7.6%; the share remaining at 168 h, 15 ng/mL was 97.2 ± 6.3%; the share remaining at 168 h, 1200 ng/mL worked out at 112 ± 2.5%. In addition, in “in vitro” (tissue homogenate), the amount remaining at 6 h, 15 ng/mL worked out at 96.1 ± 11.3%; the fraction remaining at 6 h, 1200 ng/mL was 110 ± 4.4%; the share remaining at 24 h, 15 ng/mL stood at 104 ± 4.5%; the amount remaining at 24 h, 1200 ng/mL came out at 88.9 ± 6.4%. The “Inhibition of SARS-CoV-2 main protease” value in the series on SARS-CoV-2 main protease is reported as “inhibits the SARS-CoV-2 main protease”.
On to `Oc1cc(O)cc(/C=C/[13c]2[13cH][13cH][13c](O)[13cH][13cH]2)c1` [Resveratrol-^13C6, trans-3,5,4′-trihydroxystilbene-^13C6, reference compound], for which the share remaining at 24 h, 1 mg/mL in series [1] (stock solution in DMSO, stock solution 1.00 mg/mL, stored at ice-cold temperature for 24 h, n = 6, read-out: Remaining (%, Mean ± SD)) was found to be 98.2 ± 3.9%. In addition, in series [1] (stock solution in DMSO, stock solution 1.00 mg/mL, stored at −20 °C for 7 days, n = 6, read-out: Remaining (%, Mean ± SD)), the fraction remaining at 168 h, 1 mg/mL is 100 ± 3.6%.
